Test results as given in patent US9206130B2, “Quinoline derivatives as AXL kinase inhibitors” (Max-Planck-Gesellschaft zur Förderung der Wissenschaften …, priority 2008, dated 2015).

Assays:
[1] = biological target: T1, wild type AXL (wtAXL) receptor tyrosine kinase (Homo sapiens, UniProt P30530); assay: NIH-3T3-AXL cellular tyrosine kinase assay (inhibition of AXL phosphorylation); format: cell-based; conditions: AXL phosphorylation in NIH-3T3-AXL (clone 22) cells, serum-depleted, 2 h with compound, immunoprecipitation / anti-phosphotyrosine blot
T1 construct: WtAXL cDNA was cloned into vector pLXSN(ESK) and transfected into Phoenix E packaging cells; expressed in transfected cells; host or cells: NIH3T3 N7 mouse fibroblasts, retrovirally infected (clone 22)
T1 sequence (P30530 26-894): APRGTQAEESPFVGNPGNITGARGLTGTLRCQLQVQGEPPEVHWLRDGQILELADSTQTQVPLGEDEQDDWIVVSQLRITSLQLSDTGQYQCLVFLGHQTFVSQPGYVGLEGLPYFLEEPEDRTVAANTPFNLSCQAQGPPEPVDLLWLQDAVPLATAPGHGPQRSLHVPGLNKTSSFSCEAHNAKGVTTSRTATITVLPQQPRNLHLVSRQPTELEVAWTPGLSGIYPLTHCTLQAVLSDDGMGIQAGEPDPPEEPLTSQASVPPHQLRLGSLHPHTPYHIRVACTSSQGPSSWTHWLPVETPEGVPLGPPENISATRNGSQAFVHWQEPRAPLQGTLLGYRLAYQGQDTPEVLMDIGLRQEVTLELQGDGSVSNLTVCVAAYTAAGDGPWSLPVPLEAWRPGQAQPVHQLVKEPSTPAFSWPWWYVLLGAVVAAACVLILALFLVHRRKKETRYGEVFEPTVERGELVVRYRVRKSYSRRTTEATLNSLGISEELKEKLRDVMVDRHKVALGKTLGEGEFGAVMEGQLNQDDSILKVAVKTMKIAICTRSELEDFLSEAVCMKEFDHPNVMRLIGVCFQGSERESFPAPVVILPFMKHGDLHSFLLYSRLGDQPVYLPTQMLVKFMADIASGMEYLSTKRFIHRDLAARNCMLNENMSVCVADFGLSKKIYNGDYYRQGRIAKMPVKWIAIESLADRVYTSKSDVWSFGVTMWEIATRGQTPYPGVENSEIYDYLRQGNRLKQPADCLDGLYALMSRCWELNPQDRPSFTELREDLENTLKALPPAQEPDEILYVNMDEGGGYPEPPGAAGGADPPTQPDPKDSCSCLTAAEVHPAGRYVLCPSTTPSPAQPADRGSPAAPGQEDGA
Summary of the method: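 Compound inhibition of AXL autophosphorylation was read by 4G10 immunoblot after anti-AXL immunoprecipitation from lysates. Cells: NIH3T3 lines stably carrying retroviral wild-type human AXL, treated 2 h with compound dilution series.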

Structure (SMILES) | IC50 [1] [µM] | melting point [°C]
COc1cc2nccc(Oc3ccc(NS(=O)(=O)c4cc(Cl)cc(Cl)c4O)cc3OC)c2cc1OC [Example A156, 3,5-Dichloro-N-[4-(6,7-dimethoxy-quinolin-4-yloxy)-3-methoxy-phenyl]-2-hydroxy-benzenesulfonamide] | > 1 | > 240
Cc1cc(Oc2ccc(NS(=O)(=O)c3cccs3)c(F)c2)c2cc(F)ccc2n1 [Example B1, Thiophene-2-sulfonic acid [2-fluoro-4-(6-fluoro-2-methyl-quinolin-4-yloxy)-phenyl]-amide] | > 10 | 166 to 167
Cc1cc(Oc2ccc(NS(=O)(=O)c3cccc(C#N)c3)c(F)c2)c2cc(F)ccc2n1 [Example B2, 3-Cyano-N-[2-fluoro-4-(6-fluoro-2-methyl-quinolin-4-yloxy)-phenyl]-benzenesulfonamide] | > 10 | 190 to 191
COc1cccc(S(=O)(=O)Nc2ccc(Oc3cc(C)nc4ccc(F)cc34)cc2F)c1 [Example B3, N-[2-Fluoro-4-(6-fluoro-2-methyl-quinolin-4-yloxy)-phenyl]-3-methoxy-benzenesulfonamide] | 8 | 150 to 151
Cc1cc(Oc2ccc(NS(=O)(=O)C3CC3)c(F)c2)c2cc(F)ccc2n1 [Example B4, Cyclopropanesulfonic acid [2-fluoro-4-(6-fluoro-2-methyl-quinolin-4-yloxy)-phenyl]-amide] | > 10 | 189 to 190
Cc1cc(Oc2ccc(NS(=O)(=O)c3ccc(F)c(Cl)c3)c(F)c2)c2cc(F)ccc2n1 [Example B5, 3-Chloro-4-fluoro-N-[2-fluoro-4-(6-fluoro-2-methyl-quinolin-4-yloxy)-phenyl]-benzenesulfonamide] | > 10 | 205 to 207
Cc1cc(Oc2ccc(NS(=O)(=O)c3c(F)cccc3F)c(F)c2)c2cc(F)ccc2n1 [Example B6, 2,6-Difluoro-N-[2-fluoro-4-(6-fluoro-2-methyl-quinolin-4-yloxy)-phenyl]-benzenesulfonamide] | > 10 | 188 to 190
Cc1cc(Oc2ccc(NS(=O)(=O)c3ccc(C)s3)c(F)c2)c2cc(F)ccc2n1 [Example B7, 5-Methyl-thiophene-2-sulfonic acid [2-fluoro-4-(6-fluoro-2-methyl-quinolin-4-yloxy)-phenyl]-amide] | > 10 | 151 to 153
Cc1cc(Oc2ccc(NS(=O)(=O)c3cccc(C(F)(F)F)c3)c(F)c2)c2cc(F)ccc2n1 [Example B8, N-[2-Fluoro-4-(6-fluoro-2-methyl-quinolin-4-yloxy)-phenyl]-3-trifluoromethyl-benzenesulfonamide] | > 10 | 150 to 152
Cc1cc(Oc2ccc(NS(=O)(=O)c3ccccc3)cc2)c2cc(F)ccc2n1 [Example B9, N-[4-(6-Fluoro-2-methyl-quinolin-4-yloxy)-phenyl]-benzenesulfonamide] | > 10 | 207 to 208
Cc1cc(Oc2ccc(NS(=O)(=O)c3cc(Cl)cc(Cl)c3)cc2)c2cc(F)ccc2n1 [Example B10, 3,5-Dichloro-N-[4-(6-fluoro-2-methyl-quinolin-4-yloxy)-phenyl]-benzenesulfonamide] | > 10 | 238 to 240
COc1c(Cl)cc(Cl)cc1S(=O)(=O)Nc1ccc(Oc2cc(C)nc3ccc(F)cc23)cc1 [Example B11, 3,5-Dichloro-N-[4-(6-fluoro-2-methyl-quinolin-4-yloxy)-phenyl]-2-methoxy-benzenesulfonamide] | < 1 | 192 to 193
Cc1cc(Oc2ccc(NS(=O)(=O)c3ccc(F)cc3F)cc2)c2cc(F)ccc2n1 [Example B12, 2,4-Difluoro-N-[4-(6-fluoro-2-methyl-quinolin-4-yloxy)-phenyl]-benzenesulfonamide] | > 10 | 179 to 180
Cc1cc(Oc2ccc(NS(=O)(=O)c3cc(F)cc(F)c3)cc2)c2cc(F)ccc2n1 [Example B13, 3,5-Difluoro-N-[4-(6-fluoro-2-methyl-quinolin-4-yloxy)-phenyl]-benzenesulfonamid] | < 1 | 194 to 195
Cc1cc(Oc2ccc(NS(=O)(=O)c3cccc(Br)c3)cc2)c2cc(F)ccc2n1 [Example B14, 3-Bromo-N-[4-(6-fluoro-2-methyl-quinolin-4-yloxy)-phenyl]-benzenesulfonamide] | < 1 | 183 to 184
Cc1cc(Oc2ccc(NS(=O)(=O)c3ccc(Br)cc3C(F)(F)F)cc2)c2cc(F)ccc2n1 [Example B15, 4-Bromo-N-[4-(6-fluoro-2-methyl-quinolin-4-yloxy)-phenyl]-2-trifluoromethyl-benzenesulfonamide] | > 10 | 191 to 193
Cc1cc(Oc2ccc(NS(=O)(=O)c3ccsc3)cc2)c2cc(F)ccc2n1 [Example B16, Thiophene-3-sulfonic acid [4-(6-fluoro-2-methyl-quinolin-4-yloxy)-phenyl]-amide] | > 10 | 195 to 196
COC(=O)c1sccc1S(=O)(=O)Nc1ccc(Oc2cc(C)nc3ccc(F)cc23)cc1 [Example B17, 3-[4-(6-Fluoro-2-methyl-quinolin-4-yloxy)-phenylsulfamoyl]-thiophene-2-carboxylic acid methyl ester] | > 10 | 160 to 161
Cc1cc(Oc2ccc(NS(=O)(=O)c3ccc(Cl)s3)cc2)c2cc(F)ccc2n1 [Example B18, 5-Chloro-thiophene-2-sulfonic acid [4-(6-fluoro-2-methyl-quinolin-4-yloxy)-phenyl]-amide] | > 10 | 170 to 172
Cc1cc(Oc2ccc(NS(=O)(=O)c3ccc(-c4cnco4)s3)cc2)c2cc(F)ccc2n1 [Example B19, 5-Oxazol-5-yl-thiophene-2-sulfonic acid [4-(6-fluoro-2-methyl-quinolin-4-yloxy)-phenyl]-amide] | 8 | 164 to 166
Cc1cc(Oc2ccc(NS(=O)(=O)c3cccc4ccccc34)cc2)c2cc(F)ccc2n1 [Example B20, Naphthalene-1-sulfonic acid [4-(6-fluoro-2-methyl-quinolin-4-yloxy)-phenyl]-amide] | > 10 | 223 to 225
CCn1cc(S(=O)(=O)Nc2ccc(Oc3cc(C)nc4ccc(F)cc34)cc2)cn1 [Example B21, 1-Ethyl-1H-pyrazole-4-sulfonic acid [4-(6-fluoro-2-methyl-quinolin-4-yloxy)-phenyl]-amide] | > 10 | 165 to 167
Cc1cc(Oc2ccc(NS(=O)(=O)c3cc(Cl)cc(Cl)c3O)cc2)c2cc(F)ccc2n1 [Example B22, 3,5-Dichloro-N-[4-(6-fluoro-2-methyl-quinolin-4-yloxy)-phenyl]-2-hydroxy-benzenesulfonamide] | 7 | 203 to 205
Cc1cc(Oc2ccc(NS(=O)(=O)c3cc(Cl)cc(Cl)c3)c(F)c2)c2cccc(C(F)(F)F)c2n1 [Example C01, 3,5-Dichloro-N-[2-fluoro-4-(2-methyl-8-trifluoromethyl-quinolin-4-yloxy)-phenyl]-benzenesulfonamide] | > 10 | 181 to 183
Cc1cc(Oc2ccc(NS(=O)(=O)c3cccc(-c4ccccc4)c3)c(F)c2)c2cccc(C(F)(F)F)c2n1 [Example C02, Biphenyl-3-sulfonic acid [2-fluoro-4-(2-methyl-8-trifluoromethyl-quinolin-4-yloxy)-phenyl]-amide] | > 10 | 187 to 188
Cc1cc(Oc2ccc(NS(=O)(=O)c3cccc(Oc4ccccc4)c3)c(F)c2)c2cccc(C(F)(F)F)c2n1 [Example C03, N-[2-Fluoro-4-(2-methyl-8-trifluoromethyl-quinolin-4-yloxy)-phenyl]-3-phenoxy-benzenesulfonamide] | > 10 | 167 to 168
Cc1cc(Oc2ccc(NS(=O)(=O)c3cccc4ccccc34)c(F)c2)c2cccc(C(F)(F)F)c2n1 [Example C04, Naphthalene-1-sulfonic acid [2-fluoro-4-(2-methyl-8-trifluoromethyl-quinolin-4-yloxy)-phenyl]-amide] | > 10 | 232 to 234
